Where a SMILES comes first, the peptide text is derived from it. [ ]: non-standard residue; d: D form. Pro(cis-4-Ph) = O=C(O)[C@@H]1C[C@H](c2ccccc2)CN1; Phe(3-CN) = N#Cc1cccc(C[C@H](N)C(=O)O)c1; Ala(2-furyl) = N[C@@H](Cc1ccco1)C(=O)O; Abu = CC[C@H](N)C(=O)O
What follows are compounds tested against T1, XIAP BIR3 (Homo sapiens, UniProt P98170) (assay: Biotinylated BIR3 XIAP domain Alphascreen assay). Conditions: biotinylated XIAP BIR3, FITC-labeled IAP-binding molecule, Streptavidin Donor / Anti-FITC Acceptor Beads, incubation 2 hours; concentration reducing alphascreen signal to half of maximum.
Parameters: biotinylated XIAP BIR3; biotin (biotinylated)
Method: Biotinylated BIR3 XIAP Domain Alphascreen Assay Compounds were incubated with Streptavidin Donor Beads, Anti-FITC Acceptor Beads, biotinylated XIAP BIR3 and a FITC-labeled IAP-binding molecule. Following incubation for 2 hours the wells were read in an Envision reader. IC50s correspond to the concentration of compound which reduces the alphascreen signal to half of the maximum.
Target sequence in this assay (P98170 241-356 limits assumed): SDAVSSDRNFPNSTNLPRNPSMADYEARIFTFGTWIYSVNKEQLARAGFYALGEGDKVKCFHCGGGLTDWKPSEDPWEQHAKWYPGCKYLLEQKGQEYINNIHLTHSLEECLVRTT

| SMILES | IC50 |
| --- | --- |
| CNC(=O)[C@@H]1C[C@H](c2ccccc2)CN1C(=O)[C@@H]1C[C@H](c2ccccc2)CN1C(=O)[C@H](Cc1ccco1)NC(=O)[C@H](C)N [Example 15] (H-A[Ala(2-furyl)][Pro(cis-4-Ph)][Pro(cis-4-Ph)]-NHMe) | 0.1 to 100 nM |
| CC[C@H](NC(=O)[C@H](C)N)C(=O)N1C[C@@H](c2ccccc2)C[C@H]1C(=O)N1C[C@@H](c2ccccc2)C[C@H]1C(=O)NC [Example 16, (2S,4R)-1-((3R,5S)-1-((S)-2-((S)-2-aminopropanamido)butanoyl)-3-phenylpyrrolidine-5-carbonyl)-N-methyl-4-phenylpyrrolidine-2-carboxamide] (H-A[Abu][Pro(cis-4-Ph)][Pro(cis-4-Ph)]-NHMe) | 0.1 to 100 nM |
| C[C@H](N)C(=O)N[C@@H](Cc1cccc(C(N)=O)c1)C(=O)N1CC(c2ccccc2)C1C(=O)N[C@@H]1CCc2ccccc21 (stereo partly drawn) [Example 18, 1-((S)-2-((S)-2-aminopropanamido)-3-(3-carbamoylphenyl)propanoyl)-N—((R)-2,3-dihydro-1H-inden-1-yl)-3-phenylazetidine-2-carboxamide] | 0.1 to 100 nM |
| C[C@H](N)C(=O)N[C@@H](Cc1cccc(C#N)c1)C(=O)N1C[C@@H](c2ccccc2)C[C@H]1C(=O)N[C@@H]1CCc2ccccc21 [Example 19, (2S,4R)-1-((S)-2-((S)-2-aminopropanamido)-3-(3-cyanophenyl)propanoyl)-N—((R)-2,3-dihydro-1H-inden-1-yl)-4-phenylpyrrolidine-2-carboxamide] | 0.1 to 100 nM |
| CNC(=O)[C@@H]1C[C@H](c2ccccc2)CN1C(=O)[C@@H]1C[C@H](c2ccccc2)CN1C(=O)C(Cn1cncn1)NC(=O)[C@H](C)N (stereo partly drawn) [Example 21, (2S,4R)-1-((3R,5S)-1-(2-((S)-2-aminopropanamido)-3-(1H-1,2,4-triazol-1-yl)propanoyl)-3-phenylpyrrolidine-5-carbonyl)-N-methyl-4-phenylpyrrolidine-2-carboxamide] | 0.1 to 100 nM |

Second part, the compound after the results:

| IC50 | SMILES |
| --- | --- |
| 0.1 to 100 nM | C[C@H](N)C(=O)N[C@@H](Cc1cccc(C(N)=O)c1)C(=O)N1CC(C(=O)NC2CCc3ccccc32)C1c1ccccc1 (stereo in doubt) [Example 24, 1-((S)-2-((S)-2-aminopropanamido)-3-(3-carbamoylphenyl)propanoyl)-N—((R)-2,3-dihydro-1H-inden-1-yl)-2-phenylazetidine-3-carboxamide] |
| 100 to 1000 nM | CC(N)c1ccc(C(=O)N2C[C@@H](c3ccccc3)C[C@H]2CN2CC[C@H](c3ccccc3)C2)o1 (stereo partly drawn) [Example 2, (5-(1-Aminoethyl)furan-2-yl)((2S,4R)-4-phenyl-2-(((R)-3-phenylpyrrolidin-1-yl)methyl)pyrrolidin-1-yl)methanone] |
| 0.1 to 100 nM | CC(N)c1ccc(C(=O)N2C[C@@H](c3ccccc3)C[C@H]2C(=O)N2CC[C@H](c3ccccc3)C2)o1 (stereo partly drawn) [Example 5, [5-(1-Amino-ethyl)-furan-2-yl]-[(2S,4R)-4-phenyl-2-((R)-3-phenyl-pyrrolidine-1-carbonyl)-pyrrolidin-1-yl]-methanone] |
| 100 to 1000 nM | CC(N)c1cccc(C(=O)N2C[C@@H](c3ccccc3)C[C@H]2C(=O)N2CC[C@H](c3ccccc3)C2)c1 (stereo partly drawn) [Example 6, [3-(1-Amino-ethyl)-phenyl]-[(2S,4R)-4-phenyl-2-((R)-3-phenyl-pyrrolidine-1-carbonyl)-pyrrolidin-1-yl]-methanone] |
| > 1000 nM | C[C@@H](N)C1CCCC(C(=O)N2C[C@@H](c3ccccc3)C[C@H]2C(=O)N2CC[C@H](c3ccccc3)C2)N1 (stereo partly drawn) [Example 7, [6-((R)-1-Amino-ethyl)-piperidin-2-yl]-[(2S,4R)-4-phenyl-2-((R)-3-phenyl-pyrrolidine-1-carbonyl)-pyrrolidin-1-yl]-methanone] |
| 100 to 1000 nM | C[C@H](N)C1CCCC(C(=O)N2C[C@@H](c3ccccc3)C[C@H]2C(=O)N2CC[C@H](c3ccccc3)C2)N1 (stereo partly drawn) [Example 8, [6-((S)-1-Amino-ethyl)-piperidin-2-yl]-[(2S,4R)-4-phenyl-2-((R)-3-phenyl-pyrrolidine-1-carbonyl)-pyrrolidin-1-yl]-methanone] |
| 0.1 to 100 nM | C[C@@H](N)C(=O)N[C@@H](Cc1ccc(C(N)=O)cc1)C(=O)N1C[C@@H](c2ccccc2)C[C@H]1C(=O)N[C@@H]1CCc2ccccc21 [Example 17, (2S,4R)-1-((S)-2-((R)-2-aminopropanamido)-3-(4-carbamoylphenyl)propanoyl)-N—((R)-2,3-dihydro-1H-inden-1-yl)-4-phenylpyrrolidine-2-carboxamide] |
| 0.1 to 100 nM | CNC(=O)[C@@H]1C[C@H](c2ccccc2)CN1C(=O)[C@@H]1C[C@H](c2ccccc2)CN1C(=O)[C@H](Cc1cccc(C#N)c1)NC(=O)[C@H](C)N [Example 20, (2S,4R)-1-((3R,5S)-1-((S)-2-((S)-2-aminopropanamido)-3-(3-cyanophenyl)propanoyl)-3-phenylpyrrolidine-5-carbonyl)-N-methyl-4-phenylpyrrolidine-2-carboxamide] (H-A[Phe(3-CN)][Pro(cis-4-Ph)][Pro(cis-4-Ph)]-NHMe) |
| 0.1 to 100 nM | CC[C@H](NC)C(=O)N[C@@H](Cc1cccc(C#N)c1)C(=O)N1C[C@@H](c2ccccc2)C[C@H]1CN1CC[C@H](c2ccccc2)C1 [Example 22, (S)—N—((S)-3-(3-cyanophenyl)-1-oxo-1-((2S,4R)-4-phenyl-2-(((R)-3-phenylpyrrolidin-1-yl)methyl)pyrrolidin-1-yl)propan-2-yl)-2-(methylamino)butanamide] |
| 0.1 to 100 nM | C[C@@H](N)C(=O)N[C@@H](Cc1cccc(C(N)=O)c1)C(=O)N1C[C@@H](c2ccccc2)C[C@H]1C(=O)N[C@@H]1CCc2ccccc21 [Example 23, (2S,4R)-1-((S)-2-((R)-2-aminopropanamido)-3-(3-carbamoylphenyl)propanoyl)-N—((R)-2,3-dihydro-1H-inden-1-yl)-4-phenylpyrrolidine-2-carboxamide] |

These compounds were tested against T1, XIAP BIR3 (assay: HIS-tagged BIR3 XIAP domain Alphascreen assay). Conditions: HIS-tagged XIAP BIR3 (RnD systems), biotin-labeled IAP-binding molecule, Streptavidin Donor / Ni-NTA Acceptor Beads, incubation 2 hours; concentration reducing alphascreen signal to half of maximum.
Parameters: HIS-tagged XIAP BIR3 (RnD systems); purchased RnD systems
Method: HIS-Tagged BIR3 XIAP Domain Alphascreen Assay
Compounds were incubated with Streptavidin Donor Beads, Ni-NTA Acceptor Beads, HIS-tagged XIAP BIR3 (RnD systems) and a biotin-labeled IAP-binding molecule. Following incubation for 2 hours the wells were read in an Envision reader. IC50s correspond to the concentration of compound which reduces the alphascreen signal to half of the maximum.
Target sequence in this assay (P98170 252-356 limits assumed): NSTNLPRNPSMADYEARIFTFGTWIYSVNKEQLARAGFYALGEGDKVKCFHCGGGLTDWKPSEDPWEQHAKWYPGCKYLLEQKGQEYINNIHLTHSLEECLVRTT

| SMILES | IC50 |
| --- | --- |
| CNC(C)c1cccc(C(=O)N2C[C@@H](c3ccccc3)C[C@H]2C(=O)N2CC[C@H](c3ccccc3)C2)c1 (stereo partly drawn) [Example 3, [3-(1-Methylamino-ethyl)-phenyl]-[(2S,4R)-4-phenyl-2-((R)-3-phenyl-pyrrolidine-1-carbonyl)-pyrrolidin-1-yl]-methanone] | 100 to 1000 nM |
| CNC(C)c1ccc(C(=O)N2C[C@@H](c3ccc(F)cc3)C[C@H]2C(=O)N2CCC(c3ccc(F)cc3)C2)o1 (stereo partly drawn) [Example 9, {(2S,4R)-4-(4-Fluoro-phenyl)-2-[3-(4-fluoro-phenyl)-pyrrolidine-1-carbonyl]-pyrrolidin-1-yl}-[5-(1-methylamino-ethyl)-furan-2-yl]-methanone] | 0.1 to 100 nM |
| O=C(N[C@@H]1CCc2ccccc21)[C@@H]1C[C@@H](C2CCCCC2)CN1C(=O)C1CC2(CCNCC2)CN1 (stereo partly drawn) [Example 13, (2S,4S)-4-Cyclohexyl-1-(2,8-diaza-spiro[4.5]decane-3-carbonyl)-pyrrolidine-2-carboxylic acid (R)-indan-1-ylamide] | 100 to 1000 nM |
| O=C(N[C@H](C(=O)N[C@@H]1CCc2ccccc21)C1CCCCC1)C1CC2(CCNCC2)CN1 (stereo partly drawn) [Example 14, 2,8-Diaza-spiro[4.5]decane-3-carboxylic acid [(S)-cyclohexyl-((R)-indan-1-ylcarbamoyl)-methyl]-amide] | 100 to 1000 nM |

The next lines start with the values.

| IC50 | SMILES |
| --- | --- |
| 0.1 to 100 nM | CNC(C)c1ccc(C(=O)N2C[C@@H](c3ccccc3)C[C@H]2C(=O)N2CC[C@H](c3ccccc3)C2)o1 (stereo partly drawn) [Example 1, [5-(1-Methylamino-ethyl)-furan-2-yl]-[(2S,4R)-4-phenyl-2-((R)-3-phenyl-pyrrolidine-1-carbonyl)-pyrrolidin-1-yl]-methanone] |
| 100 to 1000 nM | CNC(C)c1ccc(C(=O)N2C[C@@H](c3ccccc3)C[C@H]2CN2CC[C@H](c3ccccc3)C2)o1 (stereo partly drawn) [Example 10, (5-(1-(methylamino)ethyl)furan-2-yl)((2S,4R)-4-phenyl-2-(((R)-3-phenylpyrrolidin-1-yl)methyl)pyrrolidin-1-yl)methanone] |
| 100 to 1000 nM | CNC(C)c1cccc(C(=O)N2C[C@@H](c3ccccc3)C[C@H]2CN2CC[C@H](c3ccccc3)C2)c1 (stereo partly drawn) [Example 11, (3-(1-(methylamino)ethyl)phenyl)((2S,4R)-4-phenyl-2-(((R)-3-phenylpyrrolidin-1-yl)methyl)pyrrolidin-1-yl)methanone] |

Reference: patent US20110230419A1, “IAP BINDING COMPOUNDS” (Nuevolution A/S, priority 2008, published 2011)
